Reference: the supplement of paper PMC10307832

Legend:
Assay in all cases: relative viability (nuclei count vs DMSO), 5 days (fraction); higher = more cells survive
[1] = compound: C1CNCCC1C2=CC(=NN2)C3=CC=NC=C3 + CS(=O)(=O)N1CCN(Cc2cc3nc(-c4cccc5[nH]ncc45)nc(N4CCOCC4)c3s2)CC1 [Pictilisib] (partner 1 µM)
Summary of the method: (§1)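 Values are medians from duplicate plates. Each reflects relative viability, defined as the nuclei count of treated wells over that of vehicle wells. Lung cancer cell lines in 1536-well plates were pin-tool dosed one day after seeding with one drug alone or with a fixed anchor-drug dose plus five library-drug doses (not always all listed) in √10 steps, then fixed, stained and imaged at 4× after 5 days.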

[2] = compound: C1CNCCC1C2=CC(=NN2)C3=CC=NC=C3 + Nc1ncn([C@H]2C[C@H](O)[C@@H](CO)O2)c(=O)n1 [Decitabine] (partner 2 µM)
Summary of the method: as §1

[3] = compound: C[C@@H](N)c1ccc(C(=O)Nc2ccnc3[nH]ccc23)cc1 + CS(=O)(=O)N1CCN(Cc2cc3nc(-c4cccc5[nH]ncc45)nc(N4CCOCC4)c3s2)CC1 [Pictilisib] (partner 1 µM)
Summary of the method: as §1

[4] = compound: O[C@H]1CC[C@H](Nc2ncc3nc(Nc4c(F)cc(F)cc4F)n([C@H]4CCOC4)c3n2)CC1 [Tanzisertib] + CS(=O)(=O)N1CCN(Cc2cc3nc(-c4cccc5[nH]ncc45)nc(N4CCOCC4)c3s2)CC1 [Pictilisib] (partner 1 µM)
Summary of the method: as §1

Row | Cell Line | relative viability ([1]; first compound 0.08 µM) | relative viability ([1]; first compound 0.8 µM) | relative viability ([1]; first compound 2.53 µM) | relative viability ([1]; first compound 8 µM) | relative viability ([2]; first compound 0.08 µM) | relative viability ([2]; first compound 2.53 µM) | relative viability ([2]; first compound 8 µM) | relative viability ([3]; first compound 0.04 µM) | relative viability ([3]; first compound 0.1265 µM) | relative viability ([3]; first compound 0.4 µM) | relative viability ([3]; first compound 1.265 µM) | relative viability ([3]; first compound 4 µM) | relative viability ([4]; first compound 0.08 µM) | relative viability ([4]; first compound 0.253 µM) | relative viability ([4]; first compound 0.8 µM) | relative viability ([4]; first compound 2.53 µM) | relative viability ([4]; first compound 8 µM) | relative viability ([2]; first compound 0.8 µM)
1 | H3255 | 0.469 | 0.477 | 0.511 | 0.442 | 0.532 | 0.674 | 0.587 | 0.496 | 0.576 | 0.608 | 0.581 | 0.515 | 0.548 | 0.452 | 0.487 | 0.457 | 0.253 | –
2 | NCI-H2228 | 0.388 | 0.483 | 0.409 | 0.544 | – | – | – | 0.441 | 0.503 | 0.335 | 0.319 | 0.491 | 0.499 | 0.444 | 0.32 | 0.291 | 0.367 | –
3 | CAL-12T | 0.619 | 0.549 | 0.481 | 0.616 | – | – | – | 0.544 | 0.76 | 0.66 | – | 0.437 | 0.416 | 0.468 | 0.438 | 0.485 | 0.353 | –
4 | A-427 | 0.707 | 0.891 | 0.685 | 0.8 | 0.557 | 0.578 | 0.498 | 0.658 | 0.766 | 0.66 | – | 0.793 | 0.822 | 0.728 | 0.704 | 0.683 | 0.606 | 0.603
5 | HARA | 0.419 | 0.421 | 0.437 | 0.402 | 0.471 | 0.762 | 0.432 | 0.634 | 0.517 | 0.432 | 0.475 | 0.292 | 0.475 | 0.337 | 0.321 | 0.436 | 0.412 | 0.524
6 | NCI-H1793 | 0.294 | 0.357 | 0.422 | 0.358 | 0.338 | 0.489 | 0.626 | 0.251 | 0.437 | 0.327 | – | 0.402 | 0.378 | 0.234 | 0.377 | 0.251 | 0.317 | –
7 | NCI-H2009 | 0.81 | 0.859 | 0.872 | 0.859 | 0.374 | 0.343 | 0.37 | 0.77 | 0.768 | 0.886 | 0.22 | 0.753 | 0.965 | 0.794 | 0.972 | 0.882 | 0.563 | 0.4
8 | ABC-1 | 0.735 | 0.812 | 0.865 | 0.869 | 1.23 | 1.32 | 1.08 | 0.804 | 0.832 | 1.07 | 0.484 | 0.769 | 0.906 | 0.837 | 0.686 | 0.764 | 0.785 | 1.02
9 | IA-LM | 0.374 | 0.482 | 0.371 | 0.477 | – | – | – | 0.456 | 0.484 | 0.752 | 0.676 | 0.835 | 0.375 | 0.335 | 0.339 | 0.255 | 0.362 | –
10 | NCI-H322M | 0.423 | 0.482 | 0.523 | 0.479 | 0.67 | 0.736 | 0.872 | 0.681 | 0.536 | 0.561 | – | 0.731 | 0.506 | 0.648 | 0.591 | 0.494 | 0.459 | 0.645
